# Values of other authors as cited in patent publication US5574044A, “Muscarine antagonists” (Merck & Co., Inc., priority 1994, dated 1996).
# Legend:
# [1] = tested on: smooth muscle (M3 type) receptor; conditions: ordinarily called M3 type but variously called type M2 or M3
# eye = conditions: in vivo
# [2] = in vivo
# ciliary muscle = conditions: in vivo
# pupil = conditions: in vivo
SMILES,selectivity for smooth muscle (M3 type) receptor [1],axial elongation / enlargement of the eye (eye),sensitization assays [2],action on the ciliary muscle / ocular focusing (ciliary muscle),muscarinic selectivity and duration (muscarinic receptors),pupil dilation (pupil)
"C[N+]1(C)CCC(OC(=O)C(c2ccccc2)c2ccccc2)CC1 [Example 4-DAMP, 4-diphenylacetoxy-N-methylpiperadine methiodide]",relatively selective antagonist for smooth muscle,,,,,
CN1CCc2cccc3c2[C@H]1Cc1ccc(O)c(O)c1-3 [apomorphine],,inhibit or actually prevent the axial enlargement of the eye,,,,
CN1[C@@H]2CC[C@H]1C[C@@H](OC(=O)C(CO)c1ccccc1)C2 (stereo partly drawn) [atropine],,,test positive in sensitization assays,its action on the ciliary muscle to inhibit ocular focusing impairs near visual work like reading,long-acting non-specific antimuscarinic agent,causes mydriases (increase of pupil size)
CN1CCN(CC(=O)N2c3ccccc3C(=O)Nc3cccnc32)CC1 [pirenzepine],,inhibits axial elongation,test positive in sensitization assays,,,far less effective at pupil dilation than atropine
